Test results taken from the supplement of paper PMC10307832.

Compound: CS(=O)(=O)N1CCN(Cc2cc3nc(-c4cccc5[nH]ncc45)nc(N4CCOCC4)c3s2)CC1 [Pictilisib]
Assay: relative viability (nuclei count vs DMSO), 5 days (fraction); higher = more cells survive
Outline: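 After an overnight hold at 37 °C, lung cancer cell lines in 1536-well plates were pinned with five library-drug doses (not always all listed), each √10 from the next, on vehicle-anchored plates. The cells stayed 5 days without fresh medium, then a one-step fix, permeabilisation and Hoechst stain preceded 4× imaging and MetaXpress nuclear counts. A plate passed only with control CV under 25% and at least one doubling. Viability is the median, over plates, of treated-well nuclei relative to vehicle-well nuclei.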

Cell Line | relative viability (0.02 µM) | relative viability (0.06325 µM) | relative viability (0.6325 µM) | relative viability (1 µM, anchor plate) | relative viability (2 µM)
201T | 0.97 | 0.964 | 0.921 | 0.702 | 0.64
A549 | 0.992 | 0.97 | 0.731 | 0.517 | 0.437
A-427 | 1.1 | 1.07 | 0.921 | 0.698 | 0.74
ABC-1 | 1.02 | 0.962 | 0.764 | 0.782 | 0.551
BEN | 1 | 1.01 | 0.951 | 0.57 | 0.75
CAL-12T | 1.12 | 1.12 | 1.03 | 0.475 | 0.589
COR-L23 | 1.14 | 1.1 | 1.03 | 0.807 | 0.763
COR-L 105 | 1.1 | 0.974 | 0.871 | 0.391 | 0.555
Calu-6 | 1.05 | 1.04 | 1.01 | 0.907 | 0.792
ChaGo-K-1 | 1.04 | 1.02 | 0.893 | 0.783 | 0.815
EBC-1 | 0.943 | 1.14 | 0.868 | 0.409 | 0.272
EKVX | 0.911 | 0.941 | 0.91 | 0.433 | 0.453
EMC-BAC-2 | 1.21 | 1.04 | 0.727 | 0.555 | 0.565
EPLC-272H | 0.988 | 0.909 | 0.668 | 0.332 | 0.496
H3255 | 1.01 | 0.962 | 0.862 | 0.46 | 0.531
HARA | 1.05 | 1.13 | 0.846 | 0.401 | 0.555
HCC-15 | 1.1 | 1.02 | 0.866 | 0.737 | 0.666
HCC-44 | 1.03 | 0.975 | 0.991 | 0.612 | 0.644
HCC-78 | 0.867 | 0.854 | 0.586 | 0.219 | 0.376
HCC-366 | 0.986 | 1.02 | 0.851 | 0.159 | 0.448
HCC-827 | 1.11 | 1.05 | 1.05 | 0.939 | 0.866
HOP-62 | 1.04 | 1.07 | 0.97 | 0.743 | 0.941
IA-LM | 0.924 | 1.03 | 0.941 | 0.373 | 0.476
LC-2-ad | 1.05 | 1.07 | 0.619 | 0.496 | 0.594
LCLC-97TM1 | 0.928 | 0.932 | 0.791 | 0.199 | 0.217
LCLC-103H | 1.05 | 0.984 | 0.707 | 0.625 | 0.663
LK-2 | 0.938 | 0.926 | 0.656 | 0.598 | 0.415

Cell Line | relative viability (0.02 µM) | relative viability (0.06325 µM) | relative viability (0.6325 µM) | relative viability (1 µM, anchor plate) | relative viability (2 µM)
LOU-NH91 | 1.02 | 0.987 | 0.874 | 0.538 | 0.681
LU99A | 1.01 | 0.971 | 0.794 | 0.327 | 0.425
LXF-289 | 0.996 | 1.01 | 1.08 | 0.814 | 0.92
NCI-H23 | 1.01 | 1.09 | 0.808 | 0.525 | 0.478
NCI-H322M | 0.988 | 0.973 | 0.714 | 0.531 | 0.453
NCI-H358 | 0.983 | 0.884 | 0.786 | 0.356 | 0.355
NCI-H441 | 1.01 | 1.06 | 0.595 | 0.514 | 0.48
NCI-H460 | 0.993 | 1.02 | 0.933 | 0.381 | 0.353
NCI-H520 | 0.998 | 0.886 | 0.361 | 0.298 | 0.203
NCI-H522 | 1 | 1.05 | 0.768 | – | 0.648
NCI-H596 | 0.98 | 0.957 | 0.684 | 0.405 | 0.373
NCI-H647 | 1.09 | 1.03 | 0.78 | 0.476 | 0.471
NCI-H650 | 1.03 | 0.958 | 0.848 | 0.865 | 0.687
NCI-H661 | 1.02 | 1.05 | 1.03 | 0.424 | 0.672
NCI-H727 | 1.04 | 0.92 | 0.914 | 0.39 | 0.536
NCI-H838 | 1.01 | 0.902 | 0.722 | 0.455 | 0.426
NCI-H1299 | 1.06 | 1.05 | 1.06 | 0.773 | 0.991
NCI-H1355 | 0.977 | 1 | 0.918 | 0.461 | 0.588
NCI-H1395 | 1.12 | 1.01 | 0.715 | 0.649 | 0.54
NCI-H1437 | 1.03 | 1.06 | 0.902 | 0.482 | 0.528
NCI-H1563 | 1.01 | 0.929 | 0.668 | 0.626 | 0.533
NCI-H1623 | 0.962 | 0.94 | 0.664 | – | 0.341
NCI-H1648 | 0.783 | 0.906 | 0.39 | – | 0.318
NCI-H1650 | 1 | 1.01 | 0.809 | 0.598 | 0.532
NCI-H1651 | 0.961 | 0.997 | 0.918 | 0.639 | 0.631
NCI-H1666 | 1.06 | 1.11 | 0.961 | 0.47 | 0.679
NCI-H1703 | 0.929 | 0.806 | 0.408 | 0.244 | 0.208

Cell Line | relative viability (0.02 µM) | relative viability (0.06325 µM) | relative viability (0.6325 µM) | relative viability (1 µM, anchor plate) | relative viability (2 µM)
NCI-H1734 | 1.04 | 0.998 | 0.623 | 0.475 | 0.435
NCI-H1755 | 1.01 | 0.979 | 0.925 | 0.434 | 0.639
NCI-H1792 | 0.762 | 1.1 | 0.618 | 0.31 | 0.236
NCI-H1793 | 0.864 | 0.956 | 0.539 | 0.343 | 0.359
NCI-H1915 | 1.06 | 1.04 | 0.95 | 0.96 | 0.909
NCI-H1944 | 1.15 | 0.879 | 0.595 | 0.354 | 0.32
NCI-H1975 | 0.98 | 0.804 | 0.605 | 0.307 | 0.292
NCI-H1993 | 0.94 | 0.869 | 0.639 | 0.766 | 0.674
NCI-H2009 | 1.03 | 1.04 | 0.967 | 0.783 | 0.679
NCI-H2023 | 1.04 | 0.831 | 0.55 | 0.262 | 0.18
NCI-H2085 | 0.956 | 0.99 | 0.836 | 0.471 | 0.442
NCI-H2087 | 1.07 | 1.09 | 0.968 | 0.913 | 0.689
NCI-H2126 | 0.999 | 0.992 | 0.806 | 0.52 | 0.57
NCI-H2170 | 1 | 1.02 | 0.86 | 0.329 | 0.556
NCI-H2228 | 0.962 | 0.998 | 0.742 | 0.413 | 0.361
NCI-H2342 | 0.949 | 0.931 | 0.838 | – | 0.531
NCI-H2347 | 1.02 | 1.05 | 0.934 | 0.644 | 0.708
NCI-H2405 | 1.07 | 0.977 | 0.851 | 0.433 | 0.451
NCI-H3122 | 1.01 | 1.04 | 0.954 | 0.644 | 0.511
PC-3 [JPC-3] | 1.06 | 1.13 | 1.1 | 0.735 | 0.856
PC-14 | 1.1 | 1.14 | 0.994 | 0.672 | 0.703
RERF-LC-KJ | 0.974 | 0.944 | 0.807 | 0.565 | 0.575
SK-LU-1 | 1.06 | 0.963 | 0.933 | 0.534 | 0.678
SK-MES-1 | 1.04 | 1.01 | 0.778 | 0.392 | 0.365
SW 900 | 1.02 | 0.93 | 0.632 | – | 0.565
SW 1573 | 0.966 | 0.958 | 0.768 | 0.487 | 0.403
